In patent publication US20100144741A1, “ETHANOLAMINE DERIVATIVES USEFUL AS BACE INHIBITORS” (priority 2006, published 2010):

Target: T1, Human BACE (Homo sapiens, UniProt P56817)
T1 construct: Recombinant BACE (extracellular domain, expressed in baculovirus and purified using standard methods); made in house
Experiment: Test 1: Inhibition of Human BACE
Format: biochemical
Conditions: recombinant BACE extracellular domain, fluorescence-quenched APP-derived peptide substrate, acetate buffer pH 4.5
Description: Test 1: Inhibition of Human BACE
Recombinant BACE (extracellular domain, expressed in baculovirus and purified using standard methods) at 0.1-10 nM concentration is incubated with the test compound at various concentrations for 1 hour at room temperature in 10-100 mM acetate buffer, pH 4.5, containing 0.1% CHAPS. Synthetic fluorescence-quenched peptide substrate, derived from the sequence of APP and containing a suitable fluorophore-quencher pair is added to a final concentration of 1-5 μM and the increase in fluorescence is recorded at a suitable excitation/emission wavelength in a microplate spectro-fluorimeter for 5-30 minutes in 1-minute intervals. IC50 values are calculated from percentage of inhibition of BACE-activity as a function of the test compound concentration.

T1 sequence (P56817 46-457 limits assumed): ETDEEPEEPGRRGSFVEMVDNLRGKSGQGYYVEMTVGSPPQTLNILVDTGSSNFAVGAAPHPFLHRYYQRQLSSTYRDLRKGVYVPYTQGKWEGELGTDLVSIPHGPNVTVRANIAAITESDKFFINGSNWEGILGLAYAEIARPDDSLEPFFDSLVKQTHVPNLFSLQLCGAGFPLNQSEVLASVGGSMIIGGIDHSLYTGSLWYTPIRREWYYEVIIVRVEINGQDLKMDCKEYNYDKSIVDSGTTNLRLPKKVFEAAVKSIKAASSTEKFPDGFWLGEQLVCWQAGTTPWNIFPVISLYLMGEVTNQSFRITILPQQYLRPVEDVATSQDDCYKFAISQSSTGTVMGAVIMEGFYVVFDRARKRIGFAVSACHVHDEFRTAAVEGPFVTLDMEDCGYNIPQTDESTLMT

## CC(=O)N[C@@H](Cc1ccc(Nc2cc(-c3ccccc3)ncn2)cc1)[C@H](O)CNC1(c2cccc(C(C)C)c2)CC1 [Example 2, N-{(1S,2R)-2-Hydroxy-3-[1-(3-isopropyl-phenyl)-cyclopropylamino]-1-[4-(6-phenyl-pyrimidin-4-ylamino)-benzyl]-propyl}-acetamide]
  IC50: 23 µM
